From ChEMBL document CHEMBL5108047 (J Med Chem, 2022)

What was measured:
[1] = target: T1, DNA polymerase subunit gamma-1 (Homo sapiens, UniProt P54098); experiment: Inhibition of human DNA polymerase gamma
T1 sequence (P54098 whole entry): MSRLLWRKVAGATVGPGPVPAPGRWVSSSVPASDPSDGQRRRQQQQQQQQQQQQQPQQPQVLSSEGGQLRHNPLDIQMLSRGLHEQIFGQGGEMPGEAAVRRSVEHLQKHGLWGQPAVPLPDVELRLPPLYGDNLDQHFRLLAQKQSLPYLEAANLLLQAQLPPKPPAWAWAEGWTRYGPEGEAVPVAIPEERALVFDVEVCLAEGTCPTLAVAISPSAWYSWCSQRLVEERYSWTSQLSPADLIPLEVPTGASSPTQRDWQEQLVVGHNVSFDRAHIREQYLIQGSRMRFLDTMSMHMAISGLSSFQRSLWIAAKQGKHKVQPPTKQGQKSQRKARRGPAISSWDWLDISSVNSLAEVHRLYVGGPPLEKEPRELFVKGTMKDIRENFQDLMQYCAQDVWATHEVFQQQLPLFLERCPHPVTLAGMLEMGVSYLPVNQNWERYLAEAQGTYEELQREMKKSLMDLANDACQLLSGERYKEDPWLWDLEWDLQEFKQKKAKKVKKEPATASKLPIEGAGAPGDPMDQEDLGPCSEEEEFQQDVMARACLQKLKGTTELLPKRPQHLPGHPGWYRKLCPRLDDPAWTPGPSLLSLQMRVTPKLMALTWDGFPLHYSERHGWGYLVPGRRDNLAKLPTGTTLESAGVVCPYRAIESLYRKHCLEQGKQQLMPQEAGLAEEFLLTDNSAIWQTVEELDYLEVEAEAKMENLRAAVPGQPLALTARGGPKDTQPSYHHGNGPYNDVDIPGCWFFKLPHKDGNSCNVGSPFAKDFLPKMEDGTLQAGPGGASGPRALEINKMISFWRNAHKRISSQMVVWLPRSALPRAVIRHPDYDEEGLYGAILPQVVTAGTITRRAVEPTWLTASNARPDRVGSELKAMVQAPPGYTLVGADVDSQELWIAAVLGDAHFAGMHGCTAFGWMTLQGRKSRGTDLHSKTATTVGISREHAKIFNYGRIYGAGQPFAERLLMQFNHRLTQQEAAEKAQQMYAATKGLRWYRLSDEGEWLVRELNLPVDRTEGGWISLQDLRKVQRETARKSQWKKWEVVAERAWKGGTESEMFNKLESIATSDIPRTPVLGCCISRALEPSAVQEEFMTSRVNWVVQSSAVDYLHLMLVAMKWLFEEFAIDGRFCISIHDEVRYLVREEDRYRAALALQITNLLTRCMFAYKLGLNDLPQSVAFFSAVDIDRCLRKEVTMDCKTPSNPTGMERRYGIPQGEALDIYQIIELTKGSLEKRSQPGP

[2] = Inhibition of MMEJ-mediated DNA repair in CRSIPRR/Cas9-induced wildtype human HCT-116 cells incubated for 24 hrs by PCR analysis; type: functional, cell-based
HCT-116 = experiment: Antiproliferative activity against BRCA2 knock in human HCT-116 cells assessed as inhibition of cell growth incubated for 7 days with media replacement for every 3 or 4 days; type: functional, cell-based
[3] = Half-life in CD-1 mouse at 2.5 mg/kg, po or 2.5 mg/kg, iv measured upto 24 hrs by reverse phase LCMS analysis; type: ADME, organism-based; conditions: in vivo
[4] = Toxicity in CD-1 mouse xenografted with BRCA2 knock out human HCT-116 cells assessed as drug tolerance at 80 mg/kg, po administered twice a day for 21 days; type: organism-based; conditions: in vivo, 504 h, time 21 day
[5] = AUC in CD-1 nude mouse at 80 mg/kg, po administered twice daily and measured on day 1 by HPLC-MS analysis; type: ADME, organism-based; design: dose 80 mg/kg, time 1 day, route po; conditions: in vivo

SMILES: Nc1ccc(C#CCN(C(=O)Cc2ncc(C(F)(F)F)cc2C(F)(F)F)c2ccc(F)cc2)nn1
- IC50 [1]: > 100 µM
- IC50 [2]: 450 nM
- IC50 (HCT-116): > 15 µM
- t1/2 [3]: 24 min
- Activity [4]: Non-Toxic
- AUC at 24 h [5]: 32.6 µM·h
